For 14 molecules, Activity and IC50 results are on record in ChEMBL document CHEMBL1153899, “Discovery of benzothiazole derivatives as efficacious and enterocyte-specific MTP inhibitors” (Bioorg Med Chem Lett, 2009).

Calls of active or inactive are those of the source. The calls are words filed in the database; no cut-off is given here.

Experiment [1] relates to Mus musculus. Kind of experiment: Decrease in plasma triglyceride level in […] C57BL/6 mouse at 10 mg/kg, po daily for 3 days measured after 6 hrs. It is filed as functional.
A further experiment concerns HepG2. Kind of experiment: Inhibition of apoB secretion in human HepG2 cells after 40 hrs by ELISA. It is filed as functional, cell-based. The following applies: HepG2, 40 h.
Experiment [2] relates to Mus musculus. Kind of experiment: Decrease in body weight in […] at 10 mg/kg, po daily for 3 days. It is filed as functional, C57BL/6.
Experiment [3] deals with Mus musculus. Kind of experiment: Decrease in total food intake in 3-day high fat diet fed C57BL/6 mouse at 10 mg/kg, po daily for 3 days. The experiment is classed as functional.
Experiment [4] is described as follows: Inhibition of MTP from dog liver microsomes by scintillation counting. Set-up: species or system Canis lupus familiaris, Microsome.
Experiment [5] has as its system Mus musculus. The experiment can be described thus: Increase in peptide YY level in 3-day high fat diet fed C57BL/6 mouse at 10 mg/kg, po daily for 3 days. The experiment is classed as functional, organism-based. The arrangement: dose 10 mg/kg.

For the molecule `Cc1cccc(C(=O)Nc2ccc3nc(C(=O)N[C@H](C(=O)N(C)Cc4ccc(F)cc4)c4ccccc4)sc3c2)c1-c1ccc(C(C)(C)C)cc1`, the outcome in the experiment on Mus musculus [1], with Mus musculus [2], in the experiment on Mus musculus [3] and in the experiment on Mus musculus [5] was Active. Also, the IC50 turned out to be 2.9 nM in the experiment on HepG2 and 4.7 nM in experiment [4].
With `CC(C)(C)c1ccc(-c2ccccc2C(=O)Nc2ccc3nc(C(=O)N[C@H](C(=O)N4CCCC4)c4ccccc4)sc3c2)cc1`, the IC50 in the experiment with HepG2 stood at 1.5 nM; in experiment [4], 2.6 nM.
Consider `Cc1csc2nc(-c3ccccc3C(=O)Nc3ccc4nc(C(=O)N[C@H](C(=O)N(C)Cc5ccc(F)cc5)c5ccccc5)sc4c3)cn12`, for which the result in the experiment on Mus musculus [1], in the experiment with Mus musculus [2], with Mus musculus [3] and in the experiment with Mus musculus [5] was inactive. In addition, the IC50 in the experiment on HepG2 is 6.9 nM; in experiment [4], 16.9 nM.
As for `CN(Cc1ccc(F)cc1)C(=O)[C@@H](NC(=O)c1nc2ccc(NC(=O)c3ccccc3-c3ccc(C(C)(C)C)cc3)cc2s1)c1ccccc1`, the outcome with Mus musculus [1], in the experiment with Mus musculus [2], in the experiment with Mus musculus [3] and with Mus musculus [5] was Active. For the same molecule, the IC50 in the experiment on HepG2 was determined as 2.7 nM; in experiment [4], 3 nM.
Consider `CC(C)(C)c1ccc(-c2ccccc2C(=O)Nc2ccc3nc(C(=O)N[C@@H](C(=O)N4CCCC4)c4ccccc4)sc3c2)cc1`, for which the IC50 with HepG2 amounted to 34.8 nM.
Still for that read-out and setting: the same measure for `CN(Cc1ccc(F)cc1)C(=O)[C@@H](NC(=O)c1nc2ccc(NC(=O)c3ccccc3-c3ccc(C(F)(F)F)cc3)cc2s1)c1ccccc1`: 17.3 nM.
In the case of `CN(Cc1ccccc1)C(=O)[C@@H](NC(=O)c1cc2cc(NC(=O)c3ccccc3-c3ccc(C(F)(F)F)cc3)ccc2n1C)c1ccccc1` [DIRLOTAPIDE], the values for the IC50 (in the experiment on HepG2; in experiment [4]) were 4 nM and 2 nM, respectively.
On to `CN(Cc1ccc(F)cc1)C(=O)[C@@H](NC(=O)c1nc2ccc(NC(=O)c3ccccc3-c3nc(C(C)(C)C)cs3)cc2s1)c1ccccc1`, for which the outcome with Mus musculus [1], in the experiment with Mus musculus [2], in the experiment with Mus musculus [3] and in the experiment on Mus musculus [5] was inactive. Further, the values for the IC50 (in the experiment with HepG2; in experiment [4]) were 4 nM and 4.6 nM, respectively.
In the case of `CCCCN(C)C(=O)[C@@H](NC(=O)c1nc2ccc(NC(=O)c3ccccc3-c3ccc(C(C)(C)C)cc3)cc2s1)c1ccccc1`, the values for the IC50 (in the experiment on HepG2; in experiment [4]) were 6.5 nM and 9.5 nM, respectively.
The corresponding values for `CCCCCNC(=O)[C@@H](NC(=O)c1nc2ccc(NC(=O)c3ccccc3-c3ccc(C(C)(C)C)cc3)cc2s1)c1ccccc1` are 3.1 nM and 8.4 nM.
As to `CN(Cc1ccc(F)cc1)C(=O)[C@@H](NC(=O)c1nc2ccc(NC(=O)c3ccccc3-c3cn4ccccc4n3)cc2s1)c1ccccc1`, the result in the experiment with Mus musculus [1], with Mus musculus [2], in the experiment with Mus musculus [3] and in the experiment on Mus musculus [5] was inactive. The figures for the IC50 (in the experiment on HepG2; in experiment [4]) were 4.2 nM and 13 nM, respectively.
Consider `COc1cccc(C(=O)Nc2ccc3nc(C(=O)N[C@H](C(=O)N(C)Cc4ccc(F)cc4)c4ccccc4)sc3c2)c1-c1ccc(C(C)(C)C)cc1`, for which the result in the experiment with Mus musculus [1], in the experiment on Mus musculus [2], in the experiment with Mus musculus [3] and in the experiment with Mus musculus [5] was Active. Moreover, the IC50 came out at 2.4 nM with HepG2 and 7.9 nM in experiment [4].
Regarding `CC(C)(C)c1ccc(-c2ccccc2C(=O)Nc2ccc3nc(C(=O)N[C@H](C(=O)N4CCC(F)(F)C4)c4ccccc4)sc3c2)cc1`, in the experiment on HepG2, half-maximal inhibition (IC50) was put at 8.8 nM.
For `CN(Cc1ccc(F)cc1)C(=O)[C@@H](NC(=O)c1nc2ccc(NC(=O)c3ccccc3-c3cn4ccsc4n3)cc2s1)c1ccccc1`, the outcome with Mus musculus [1], in the experiment on Mus musculus [2], in the experiment with Mus musculus [3] and in the experiment on Mus musculus [5] was inactive. Also, the figures for the IC50 (in the experiment with HepG2; in experiment [4]) were 23.7 nM and 14.8 nM, respectively.
